Measurements taken from ChEMBL document CHEMBL1201862, “PubChem BioAssay data set” (2004).
Active and inactive are the calls of the source.

Assays:
[1] = biological target: T1, DNA repair and recombination protein RAD54-like (Homo sapiens, UniProt Q92698); assay: inhibitors of human RAD54 branch migration, confirmation, biochemical, fluorescence, cherry-picked samples, dose series (AID 651657); assay type: functional
T1 sequence (Q92698 whole entry): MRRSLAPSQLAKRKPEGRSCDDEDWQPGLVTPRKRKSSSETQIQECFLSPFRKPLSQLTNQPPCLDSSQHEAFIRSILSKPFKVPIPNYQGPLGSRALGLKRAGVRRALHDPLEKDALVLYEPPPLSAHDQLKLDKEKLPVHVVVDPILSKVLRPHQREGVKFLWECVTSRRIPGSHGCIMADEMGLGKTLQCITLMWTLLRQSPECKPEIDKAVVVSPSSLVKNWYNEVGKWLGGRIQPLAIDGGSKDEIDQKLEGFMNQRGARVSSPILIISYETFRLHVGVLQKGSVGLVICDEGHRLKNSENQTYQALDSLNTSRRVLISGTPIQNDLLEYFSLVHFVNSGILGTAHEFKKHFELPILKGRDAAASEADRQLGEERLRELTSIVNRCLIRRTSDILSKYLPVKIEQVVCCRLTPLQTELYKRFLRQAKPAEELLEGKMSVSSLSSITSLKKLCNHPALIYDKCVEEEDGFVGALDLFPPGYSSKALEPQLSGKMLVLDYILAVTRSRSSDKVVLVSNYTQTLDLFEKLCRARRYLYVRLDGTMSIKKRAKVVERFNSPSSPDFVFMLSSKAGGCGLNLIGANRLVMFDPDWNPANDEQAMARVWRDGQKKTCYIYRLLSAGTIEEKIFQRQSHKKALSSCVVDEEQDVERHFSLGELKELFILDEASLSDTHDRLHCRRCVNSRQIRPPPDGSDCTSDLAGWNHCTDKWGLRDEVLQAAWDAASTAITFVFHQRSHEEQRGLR

[2] = inhibitors of clade B AD8 Env fusion, dose response, cell-based, cherry-pick (AID 652062); assay type: functional;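 note: luciferase signal from cell-cell fusion driven by HIV-1 clade B AD8 Env; potency is for inhibitors of fusion seen as a drop in luminescence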
[3] = biological target: T2, Short transient receptor potential channel 4 (Mus musculus, UniProt Q9QUQ5); assay: mouse TRPC4 channel inhibitors, dose response, cell-based, HEK293 TRPC4/mu-opioid, Fluo-4 calcium (AID 434942); assay type: functional;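 note: potency of inhibitors blocking the TRPC4 calcium response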
T2 sequence (Q9QUQ5 whole entry): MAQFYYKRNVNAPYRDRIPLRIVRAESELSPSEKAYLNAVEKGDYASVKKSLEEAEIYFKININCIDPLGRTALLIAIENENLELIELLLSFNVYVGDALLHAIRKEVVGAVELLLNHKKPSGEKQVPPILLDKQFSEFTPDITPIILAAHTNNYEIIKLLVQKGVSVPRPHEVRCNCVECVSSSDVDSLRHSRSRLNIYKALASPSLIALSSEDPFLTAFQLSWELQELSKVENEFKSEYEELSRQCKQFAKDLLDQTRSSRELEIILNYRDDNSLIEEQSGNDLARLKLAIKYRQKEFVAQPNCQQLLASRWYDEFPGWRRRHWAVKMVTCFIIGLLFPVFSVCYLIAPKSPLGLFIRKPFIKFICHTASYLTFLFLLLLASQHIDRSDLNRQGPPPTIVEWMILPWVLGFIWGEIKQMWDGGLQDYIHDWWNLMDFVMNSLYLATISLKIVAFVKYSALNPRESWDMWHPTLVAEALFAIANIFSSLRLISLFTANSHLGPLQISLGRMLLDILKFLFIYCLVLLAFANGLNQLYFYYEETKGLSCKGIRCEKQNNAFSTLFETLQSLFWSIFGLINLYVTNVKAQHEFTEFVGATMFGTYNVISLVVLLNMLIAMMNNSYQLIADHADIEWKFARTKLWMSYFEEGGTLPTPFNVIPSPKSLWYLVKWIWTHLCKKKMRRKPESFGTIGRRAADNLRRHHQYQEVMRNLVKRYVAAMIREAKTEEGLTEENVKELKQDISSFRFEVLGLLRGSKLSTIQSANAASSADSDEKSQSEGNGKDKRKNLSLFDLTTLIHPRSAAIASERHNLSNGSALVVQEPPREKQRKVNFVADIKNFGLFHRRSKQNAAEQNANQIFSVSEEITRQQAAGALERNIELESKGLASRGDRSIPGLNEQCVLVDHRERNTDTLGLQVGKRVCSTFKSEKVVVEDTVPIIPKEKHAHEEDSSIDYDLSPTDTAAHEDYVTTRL

[4] = ZM109 Env clade C HIV-1 fusion inhibitors, dose response, HeLa effector, CEM target cells, luciferase, cherry-pick (AID 652058); assay type: functional, cell-based
[5] = inhibitors of HIV Env-driven cell fusion, dose response, cherry-pick (AID 652057); assay type: functional, cell-based
[6] = off-target signal loss in HeLa-CEM21 co-culture – HeLa F-luc CTL cells, cherry-picked, counter-screen for HIV-1 Env fusion inhibitor project, dose response (AID 652040); assay type: functional, cell-based;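 note: potency for signal decrease marking cytotoxic or nonspecific inhibition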
[7] = biological target: T3, High affinity choline transporter 1 (Homo sapiens, UniProt Q9GZV3); assay: CHT inhibitors, dose response, cell-based, 5-point CRC, membrane potential dye (AID 504840); assay type: functional
T3 sequence (Q9GZV3 whole entry): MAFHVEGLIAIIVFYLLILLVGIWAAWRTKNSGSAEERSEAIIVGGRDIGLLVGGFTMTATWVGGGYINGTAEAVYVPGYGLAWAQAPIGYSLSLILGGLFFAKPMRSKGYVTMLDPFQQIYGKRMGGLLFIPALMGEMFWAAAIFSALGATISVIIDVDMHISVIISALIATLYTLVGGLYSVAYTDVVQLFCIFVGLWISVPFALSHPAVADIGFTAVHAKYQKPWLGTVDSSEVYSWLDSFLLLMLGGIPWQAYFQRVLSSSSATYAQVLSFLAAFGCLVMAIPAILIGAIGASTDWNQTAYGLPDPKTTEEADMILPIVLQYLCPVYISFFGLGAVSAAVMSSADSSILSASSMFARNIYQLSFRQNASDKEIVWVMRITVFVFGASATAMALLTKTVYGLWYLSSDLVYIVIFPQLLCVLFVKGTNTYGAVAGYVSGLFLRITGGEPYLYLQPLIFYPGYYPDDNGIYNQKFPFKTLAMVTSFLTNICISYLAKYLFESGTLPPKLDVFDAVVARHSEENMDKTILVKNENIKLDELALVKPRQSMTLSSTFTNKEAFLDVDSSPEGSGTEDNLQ

[8] = biological target: T4, Ubiquitin-conjugating enzyme E2 N (Homo sapiens, UniProt P61088); assay type: functional;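 note: Dose-response confirmation in a TR-FRET assay detecting UBC13-driven polyubiquitin chain formation, inhibition measured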
T4 sequence (P61088 whole entry): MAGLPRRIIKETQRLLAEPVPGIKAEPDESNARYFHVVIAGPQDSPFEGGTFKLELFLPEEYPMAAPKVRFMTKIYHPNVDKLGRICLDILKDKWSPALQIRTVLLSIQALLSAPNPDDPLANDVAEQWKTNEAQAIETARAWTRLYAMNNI

[9] = biological target: T5, Carboxy-terminal domain RNA polymerase II polypeptide A small phosphatase 1 (Homo sapiens, UniProt Q9GZU7); assay: inhibitors of CTDSP1, concentration-response testing, biochemical assay, absorbance-based, actives from ultra-high-throughput screening (AID 540297); assay type: functional
T5 sequence (Q9GZU7 whole entry): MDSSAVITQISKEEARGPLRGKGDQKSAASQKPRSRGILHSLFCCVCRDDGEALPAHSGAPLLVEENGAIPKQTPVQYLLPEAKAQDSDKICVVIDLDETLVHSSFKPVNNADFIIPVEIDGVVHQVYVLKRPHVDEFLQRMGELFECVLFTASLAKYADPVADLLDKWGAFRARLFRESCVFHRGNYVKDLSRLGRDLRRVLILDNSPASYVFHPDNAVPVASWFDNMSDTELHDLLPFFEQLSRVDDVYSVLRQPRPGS

CHO = assay: cytotoxicity in TLR9-MyD88 CHO cells, dose response, cytotoxicity control for TLR9-MyD88 binding inhibitor project, cell-based, luminescence (AID 588339); assay type: functional, hamster; details: Cricetulus griseus;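 note: CHO cells stably coexpressing TLR9 and MyD88 fusions from primary screen; compound exposure lasted 48 hours before viability readout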
Vero = assay: cells; assay type: functional; details: Chlorocebus sabaeus
Fatty acid synthase [10] = biological target: T6, Fatty acid synthase (Homo sapiens, UniProt P49327); assay: FAS thioesterase domain inhibitors, dose response, biochemical, kinetic fluorescence intensity (AID 624326); assay type: functional;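 note: rate of fluorescence rise from hydrolysis of a fluorogenic O-methyl fluorescein ester substrate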
T6 sequence (P49327 whole entry, the tested form may be a part): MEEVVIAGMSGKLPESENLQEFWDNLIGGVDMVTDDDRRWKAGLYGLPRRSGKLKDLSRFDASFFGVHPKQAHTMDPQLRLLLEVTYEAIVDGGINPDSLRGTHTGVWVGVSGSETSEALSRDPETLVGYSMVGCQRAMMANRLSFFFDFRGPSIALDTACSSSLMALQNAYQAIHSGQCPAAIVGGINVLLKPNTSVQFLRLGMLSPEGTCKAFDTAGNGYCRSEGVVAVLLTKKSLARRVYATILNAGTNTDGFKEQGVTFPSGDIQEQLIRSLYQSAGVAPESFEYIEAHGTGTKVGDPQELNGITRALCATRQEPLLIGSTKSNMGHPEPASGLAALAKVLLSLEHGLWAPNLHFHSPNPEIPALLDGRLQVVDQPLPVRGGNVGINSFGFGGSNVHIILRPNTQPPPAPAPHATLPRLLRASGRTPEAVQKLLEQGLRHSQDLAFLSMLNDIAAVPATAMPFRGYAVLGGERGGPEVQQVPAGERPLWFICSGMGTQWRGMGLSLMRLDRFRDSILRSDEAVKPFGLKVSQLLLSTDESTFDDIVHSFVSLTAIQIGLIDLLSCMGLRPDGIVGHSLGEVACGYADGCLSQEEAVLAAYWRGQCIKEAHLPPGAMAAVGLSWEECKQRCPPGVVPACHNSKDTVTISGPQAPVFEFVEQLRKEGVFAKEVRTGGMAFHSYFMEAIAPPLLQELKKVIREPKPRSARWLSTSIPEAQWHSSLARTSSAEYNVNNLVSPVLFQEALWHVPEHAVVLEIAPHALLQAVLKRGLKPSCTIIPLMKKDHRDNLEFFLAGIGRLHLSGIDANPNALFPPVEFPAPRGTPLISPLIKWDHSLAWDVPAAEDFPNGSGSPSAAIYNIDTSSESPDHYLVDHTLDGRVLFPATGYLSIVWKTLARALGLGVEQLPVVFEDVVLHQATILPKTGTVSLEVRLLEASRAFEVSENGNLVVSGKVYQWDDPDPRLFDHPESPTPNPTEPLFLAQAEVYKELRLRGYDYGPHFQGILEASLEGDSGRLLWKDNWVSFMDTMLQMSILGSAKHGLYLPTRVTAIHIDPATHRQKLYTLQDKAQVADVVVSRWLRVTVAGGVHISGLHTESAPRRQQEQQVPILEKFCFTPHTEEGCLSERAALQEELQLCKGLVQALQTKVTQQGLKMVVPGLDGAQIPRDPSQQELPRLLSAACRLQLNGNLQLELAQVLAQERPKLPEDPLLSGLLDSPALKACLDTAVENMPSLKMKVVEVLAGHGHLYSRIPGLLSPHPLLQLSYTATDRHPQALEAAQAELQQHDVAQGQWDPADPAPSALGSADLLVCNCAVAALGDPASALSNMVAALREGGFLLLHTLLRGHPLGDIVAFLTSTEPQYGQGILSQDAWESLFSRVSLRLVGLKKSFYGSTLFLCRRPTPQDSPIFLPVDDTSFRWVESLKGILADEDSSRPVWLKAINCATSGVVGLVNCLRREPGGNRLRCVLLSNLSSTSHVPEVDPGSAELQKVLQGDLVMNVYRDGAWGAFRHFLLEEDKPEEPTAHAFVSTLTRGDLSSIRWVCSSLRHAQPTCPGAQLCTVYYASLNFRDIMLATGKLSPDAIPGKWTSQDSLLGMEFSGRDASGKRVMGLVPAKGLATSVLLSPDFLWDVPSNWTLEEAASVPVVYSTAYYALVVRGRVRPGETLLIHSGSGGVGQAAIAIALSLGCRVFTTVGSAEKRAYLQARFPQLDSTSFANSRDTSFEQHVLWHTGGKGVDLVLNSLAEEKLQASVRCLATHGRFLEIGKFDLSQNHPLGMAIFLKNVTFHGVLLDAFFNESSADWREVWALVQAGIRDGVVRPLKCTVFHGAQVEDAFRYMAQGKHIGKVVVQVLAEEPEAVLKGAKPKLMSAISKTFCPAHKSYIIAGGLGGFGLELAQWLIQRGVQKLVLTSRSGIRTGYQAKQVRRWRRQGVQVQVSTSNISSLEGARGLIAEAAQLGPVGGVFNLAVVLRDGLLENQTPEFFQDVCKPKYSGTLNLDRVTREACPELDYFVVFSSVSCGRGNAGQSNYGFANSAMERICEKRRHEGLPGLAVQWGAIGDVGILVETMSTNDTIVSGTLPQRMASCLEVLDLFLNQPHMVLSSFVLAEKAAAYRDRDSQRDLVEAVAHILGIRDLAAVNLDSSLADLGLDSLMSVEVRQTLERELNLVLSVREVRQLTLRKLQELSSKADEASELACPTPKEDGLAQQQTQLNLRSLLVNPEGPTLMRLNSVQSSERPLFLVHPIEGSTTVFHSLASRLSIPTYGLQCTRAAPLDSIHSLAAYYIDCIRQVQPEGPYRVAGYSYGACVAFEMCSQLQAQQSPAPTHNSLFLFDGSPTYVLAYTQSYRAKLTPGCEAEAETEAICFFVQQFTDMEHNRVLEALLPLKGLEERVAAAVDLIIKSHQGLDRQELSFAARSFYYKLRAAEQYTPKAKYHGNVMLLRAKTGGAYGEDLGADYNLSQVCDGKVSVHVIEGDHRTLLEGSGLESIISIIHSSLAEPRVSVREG

Fatty acid synthase [11] = biological target: T6, Fatty acid synthase; assay: FAS thioesterase domain inhibitors, dose response, biochemical, endpoint fluorescence intensity, uHTS hits (AID 624327); assay type: functional;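 note: fluorescence from hydrolysis of an O-methyl fluorescein acyl ester substrate by the enzyme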
cells = assay type: functional

With `CCN(CC)CCCNc1nc(-c2ccccc2)nc2ccccc12` the AC50 [1] was 13 µM (active).
For `CCOC(=O)c1cnc2c(C)cccc2c1NCCCN1CCOCC1`, the AC50 [1] was 16.6 µM (active).
For `Clc1ccc(-c2csc3ncnc(NCCN4CCOCC4)c23)cc1`, the AC50 [2] was 18.1 µM (active), the EC50 [3] was 3.35 µM (active) and the AC50 [4] was 2.24 µM (active). For the same compound, the AC50 [5] was 3.74 µM (active) and the AC50 [6] was > 70 µM (inactive).
In the case of `Cc1cc(SCc2cc(=O)n3ccsc3n2)nc2ccccc12`, the IC50 [7] is reported as 13.2 µM (active).
For `O=C(C[n+]1cc(Br)cc2ccccc21)c1ccc(Br)cc1`, the IC50 [7] was 11.4 µM (active).
In the case of `COc1ccc(NC(=O)CSc2nc3ccsc3c(=O)n2CCCCCC(=O)O)cc1`, the IC50 [8] is reported as > 20 µM (inactive).
For `Cc1ccc(O)c(C(=O)c2cnn(C(=O)COc3ccc(Cl)cc3)c2)c1`, the IC50 [9] was 3.89 µM (active).
With `COc1cccc(S(=O)(=O)N(C)C[C@H]2Oc3cc(C4=CCCCC4)ccc3S(=O)(=O)N([C@H](C)CO)C[C@H]2C)c1` the AC50 [2] was 2.06 µM (active) and the AC50 [5] was 0.409 µM (active).
In the case of `O=C(O)c1[nH]c2ccc(Cl)cc2c1CC(=O)N1CCN(c2ccccc2)CC1`, the IC50 [7] is reported as 13.2 µM (active).
In the case of `CCN(C[C@H]1N[C@@](C)(C(=O)OC)[C@H]2C(=O)N(Cc3ccccc3)C(=O)[C@@H]12)C(=O)Nc1ccccc1`, the AC50 [2] is reported as 2.56 µM (active), the AC50 [4] is reported as 2.42 µM (active) and the AC50 [5] is reported as 2.92 µM (active). For the same compound, the AC50 [6] was 3.81 µM (active).
In the case of `CS(=O)(=O)c1sc2nc(-c3ccccc3)cc(-c3ccccc3)c2c1N`, the IC50 (CHO) is reported as > 49.8 µM (inactive).
With `CC1CCN(CCCNC(=O)c2ccc3c(Cl)c4c(nc3c2)CCCC4)CC1` the CC50 (Vero) was > 25 µM (active).
With `O=C1c2cccc3cccc(c23)C(=O)N1CCN1CCN(CC(O)COc2ccccc2)CC1` (centres undefined) the IC50 [8] was > 20 µM (inactive).
For `COc1ccc(N(C(=O)c2snc(C(N)=O)c2N)C(C(=O)NC2CCCC2)c2ccc3ncccc3c2)cc1` (centres undefined), the IC50 [8] was > 20 µM (inactive).
For `CC(c1ccccc1)n1c(-c2cccs2)nc2c(c(=O)c3ccccc3n2C)c1=O` (centres undefined), the CC50 (Vero) was > 25 µM (active).
In the case of `CCOC(=O)N1CCN(C(=O)c2ccc3c(c2)N(Cc2ccc(F)cc2)CCS3)CC1`, the IC50 [8] is reported as > 20 µM (inactive).
With `CCCC(C(=O)NC(C)(C)C)N(CC1CCCO1)C(=O)c1snc(C(N)=O)c1N` (centres undefined) the IC50 [8] was > 20 µM (inactive).
With `O=C(OCC(=O)N1CCc2ccccc2C1)c1cccc([N+](=O)[O-])c1` the IC50 (Fatty acid synthase [10]) was 10.9 µM (active), the EC50 [3] was 2.37 µM (active) and the IC50 (Fatty acid synthase [11]) was 9.14 µM (active). The IC50 (cells) was 23.1 µM (active).
